pEC50, pKi: −log10 of the molar value. Where two headings read alike, the source gives them in different places.
Experiments:
NS3/4A protease gt 1b = NS3/4A protease gt 1b (Hepatitis C virus genotype 1b, UniProt P26663); assay: HCV NS3 protease time-resolved fluorescence (TRF) assay, NS3/4A inhibitory activity (Ki), gt 1b; assay type: biochemical; conditions: NS3/4A enzyme
Method: (§1) The HCV NS3 protease inhibitory activity of the present compounds may be tested using assays known in the art. One such assay is HCV NS3 protease time-resolved fluorescence (TRF) assay as described below and in WO 2006/102087. Other examples of such assays are described in, for example, WO 2005/046712. HCV NS3 protease inhibitors, such as those described herein have a Ki less than 50 μM, such as less than 10 μM, and less than 100 nM. Ki is determined by an NS3 protease assay. The assay is performed in a final volume of 100 μl in assay buffer containing 50 mM HEPES, pH 7.5, 150 mM NaCl, 15% glycerol, 0.15% TRITON X-100, 10 mM DTT, and 0.1% PEG 8000. NS3 protease is preincubated with various concentrations of inhibitors in DMSO for 30 minutes. The reaction is initiated by adding the TRF peptide substrate (final concentration 100 nM). NS3 mediated hydrolysis of the substrate is quenched after 1 hour at room temperature with 100 μl of 500 mM MES, pH 5.5. Product fluorescence is detected using either a VICTOR V2 or FUSION fluorophotometer (PERKIN ELMER LIFE AND ANALYTICAL SCIENCES) with excitation at 340 nm and emission at 615 nm with a 400 μs delay. Testing concentrations of different enzyme forms are selected to result in a signal to background ratio (SIB) of 10-30. IC50 values are derived using a standard four-parameter fit to the data. Ki values are derived from IC50 values using the following formula, IC50=Ki(1+[S]/KM), Eqn (1), where [S] is the concentration of substrate peptide in the reaction and KM is the Michaelis constant. See Paola Gallinari et al., Modulation of Hepatitis C Virus NS3 Protease and Helicase Activities through the Interaction with NS4A, 38 BIOCHEM. 5620 (1999); Paola Gallinari et al., Multiple Enzymatic Activities Associated with Recombinant NS3 Protein of Hepatitis C Virus, 72(8) J. VIROLOGY 6758 (1998); Mariana Taliani et al., A Continuous Assay of Hepatitis C Virus Protease Based on Resonance Energy Transfer Depsipeptide Substrates, 240 ANAL. BIOCHEM. 60 (1996).
(§2) This NS3 protease assay was performed in a final volume of 100 μl assay buffer containing 50 mM HEPES, pH 7.5, 150 mM NaCl, 15% glycerol, 0.15% TRITON X-100, 10 mM DTT, and 0.1% PEG 8000. NS3/4A protease was pre-incubated with various concentrations of inhibitors in DMSO for 30 minutes. The reaction was initiated by adding the TRF peptide substrate (final concentration 100 nM). NS3 mediated hydrolysis of the substrate was quenched after 1 hour at RT with 100 μl of 500 mM MES, pH 5.5. Product fluorescence was detected using either a V1CTOR V2 or FUSION fluorophotometer (PERKIN ELMER LIFE AND ANALYTICAL SCIENCES) with excitation at 340 nm and emission at 615 nm with a 400 us delay. Testing concentrations of different enzyme forms were selected to result in a signal to background ratio (SIB) of 10-30. IC50 values were derived using a standard four-parameter fit to the data. K, values are derived from IC50 values using the following formula, IC50=Ki(1+[S]/KM), Eqn (1), where [S] is the concentration of substrate peptide in the reaction and KM is the Michaelis constant. See Paola Gallinari et al., Modulation of Hepatitis C Virus NS3 Protease and Helicase Activities through the Interaction with NS4A, 38 BIOCHEM. 5620 (1999); Paola Gallinari et al., Multiple Enzymatic Activities Associated with Recombinant NS3 Protein of Hepatitis C Virus, 72(8) J. VIROLOGY 6758 (1998); Mariana Milani et al., A Continuous Assay of Hepatitis C Virus Protease Based on Resonance Energy Transfer Depsipeptide Substrates, 240 ANAL. BIOCHEM. 60 (1996); Shi-Shan Mao et al., A time-resolved, internally quenched fluorescence assay to characterize inhibition of hepatitis C virus nonstructural protein 3-4A protease at low enzyme concentrations, 373 ANALYTICAL BIOCHEMISTRY 1 (2008). Measuring Compound Inhibitory Potency (Replicon EC50 (nM))

[1] = biological target: NS3/4A protease gt 1b A156V (Hepatitis C virus genotype 1b, UniProt P26663, A1182V); assay: HCV NS3 protease time-resolved fluorescence (TRF) assay, NS3/4A inhibitory activity (Ki), gt 1b A156V; assay type: biochemical
Method: as §1, §2

NS3/4A protease gt 3a = NS3/4A protease gt 3a (Hepatitis C virus genotype 3a, UniProt Q81258); assay: HCV NS3 protease time-resolved fluorescence (TRF) assay, NS3/4A inhibitory activity (Ki), gt 3a; assay type: biochemical; conditions: NS3/4A enzyme
Method: as §1, §2

HCV gt 1b replicon = assay: HCV replicon assay, compound inhibitory potency (Replicon EC50); assay type: cell-based; conditions: Hepatitis C virus, GT1B
Method: Measurement of inhibition by compounds was performed using the HCV replicon system. Several different replicons encoding different HCV genotypes or mutations were used. In addition, potency measurements were made using different formats of the replicon assay, including different ways of measurements and different plating formats. See Jan M. Vrolijk et al., A replicon-based bioassay for the measurement of interferons in patients with chronic hepatitis C, 110 J. VIROLOGICAL METHODS 201 (2003); Steven S. Carroll et al., Inhibition of Hepatitis C Virus RNA Replication by 2′-Modified Nucleoside Analogs, 278(14) J. BIOLOGICAL CHEMISTRY 11979 (2003). However, the underlying principles are common to all of these determinations, and are outlined below.
Stable neomycin phosphotransferase encoding replicon-harboring cell lines were used, so all cell lines were maintained under G418 selection prior to the assay. In some cases the cell lines encoded a luciferase:NEO FUSION and could be assayed either directly by determination of RNA copy number, or indirectly through measurement of the luciferase activity.
To initiate an assay, replicon cells were plated in the presence of a dilution series of test compound in the absence of G418. Typically, the assays were performed in a 96-well plate format for manual operation, or a 384-well plate in an automated assay. Replicon cells and compound were incubated for 24 to 48 hours, depending on the assay. At the end of the assay, cells are washed free of media and compound and then lysed. For direct quantitation, RNA levels were measured by 32P-probe hybridization and protection, or in a TAQMAN-based assay and normalized to cellular cyclophilin A RNA levels. In some cases, luciferase activity was measured using a conventional luciferase assay. In all cases, EC50 determinations were calculated as a percent of a DMSO control by fitting the data to a four-parameter fit function.

[2] = Plasma and liver concentrations and pharmacokinetics (Rat PK); assay type: in vivo; parameters: Rat PK 5 mpk AUC: unit not given here; conditions: for concentration at 4 h: 5 mg/kg, 5 mpk, liver concentration at 4 h; for Rat PK 5 mpk AUC: area under the plasma concentration/time curve
Method: Test compounds were dissolved in a suitable dosing vehicle for i.v. administration (e.g., 20%:60%:20% DMSO:PEG400:H2O) or per oral administration (e.g., 10% POLYSORBATE80:90% H2O or 100% PEG400). Animals were administered (n=2 or 3) using a crossover study design for non-rodents. Plasma samples were collected at time points between 2 minutes and 24 hours, and compound levels were determined by RP-LC/MS/MS. Liver samples were collected post-mortem in rat. Liver samples were weighed, homogenized, and diluted using techniques known to those skilled in the art, and compound levels were determined by RP-LC/MS/MS.
Pharmacokinetic parameters were calculated based on non-compartmental analysis (e.g., using WATSON, WINNOLIN). Predose concentrations that were below the limit of quantitation (BLQ) were assigned a value of 0, Standard pharmacokinetic parameters CLp, Vdss, half-life (only for IV), % F, Cmax, Tmax, AUC0-last, AUC0-infinity were calculated. AUC values were calculated using linear trapezoidal method for ascending concentrations and the log trapezoidal method for descending concentrations.

[3] = 10% fetal bovine serum, read-out: gt 1b Replicon EC50 10% FBS
[4] = 50% normal human serum, read-out: gt 1b Replicon EC50 50% NHS

| SMILES | pKi (NS3/4A protease gt 1b) | pKi [1] | pKi (NS3/4A protease gt 3a) | pEC50 (HCV gt 1b replicon; [3]) | pEC50 (HCV gt 1b replicon; [4]) | concentration at 4 h [2] [µM] | Rat PK 5 mpk AUC [2] |
| --- | --- | --- | --- | --- | --- | --- | --- |
| CC1(S(=O)(=O)NC(=O)[C@@]23C[C@H]2/C=C\CCCCC[C@@H]2NC(=O)O[C@@H]4CCC[C@H]4CCCCCc4nc5ccccc5nc4O[C@@H]4C[C@@H](C(=O)N3)N(C4)C2=O)CC1 [Example 7, (3R,20R,24R,28S,34Z,36S,38R,41S)—N-[(1-Methylcyclopropyl)sulfonyl]-26,40,42-trioxo-4,25-dioxa-1,6,13,27,39-pentaazaheptacyclo[26.13.1.1^3,41.0^5,14.0^7,12.0^20,24.0^36,38]tritetraconta-5,7,9,11,13,34-hexaene-38-carboxamide] | 10.70 | 8.92 | 9.14 | 8.70 | 8.00 | 41 | 1.35 |
| O=C1N[C@H]2CCCCC/C=C\[C@@H]3C[C@@]3(C(=O)NS(=O)(=O)C3CC3)NC(=O)[C@@H]3C[C@H](CN3C2=O)Oc2nc3ccccc3nc2CCCCC[C@@H]2C[C@H]2O1 [Example 8, (3R,20R,22R,26S,32Z,34S,36R,39S)—N-(Cyclopropylsulfonyl)-24,38,40-trioxo-4,23-dioxa-1,6,13,25,37-pentaazaheptacyclo[24.13.1.1^3,39.0^5,14.0^7,12.0^20,22.0^34,36]hentetraconta-5,7,9,11,13,32-hexaene-36-carboxamide] | 10.70 | 9.05 | 9.31 | 9.00 | 7.89 | 7 | 0.06 |
| CC1(S(=O)(=O)NC(=O)[C@@]23C[C@H]2/C=C\CCCCC[C@@H]2NC(=O)O[C@@H]4C[C@H]4CCCCCc4nc5ccccc5nc4O[C@@H]4C[C@@H](C(=O)N3)N(C4)C2=O)CC1 [Example 9, (3R,20R,22R,26S,32Z,34S,36R,39S)—N-[(1-Methylcyclopropyl)sulfonyl]-24,38,40-trioxo-4,23-dioxa-1,6,13,25,37-pentaazaheptacyclo[24.13.1.1^3,39.0^5,14.0^7,12.0^20,22.0^34,36]hentetraconta-5,7,9,11,13,32-hexaene-36-carboxamide] | 10.52 | 9.10 | 9.28 | 8.70 | 7.96 | 20 | 0.26 |
| C[C@@]12C[C@H]1CCCCCc1nc3ccccc3nc1O[C@@H]1C[C@H]3C(=O)N[C@]4(C(=O)NS(=O)(=O)C5CC5)C[C@H]4/C=C\CCCCC[C@H](NC(=O)O2)C(=O)N3C1 [Example 10, (3R,20R,22R,26S,32Z,34S,36R,39S)—N-(Cyclopropylsulfonyl)-22-methyl-24,38,40-trioxo-4,23-dioxa-1,6,13,25,37-pentaazaheptacyclo[24.13.1.1^3,39.0^5,14.0^7,12.0^20,22.0^34,36]hentetraconta-5,7,9,11,13,32-hexaene-36-carboxamide] | 10.70 | 9.22 | 9.46 | 9.00 | 8.30 | 15 | 0.6 |
| CC1(S(=O)(=O)NC(=O)[C@@]23C[C@H]2/C=C\CCCCC[C@@H]2NC(=O)O[C@]4(C)C[C@H]4CCCCCc4nc5ccccc5nc4O[C@@H]4C[C@@H](C(=O)N3)N(C4)C2=O)CC1 [Example 11, (3R,20R,22R,26S,32Z,34S,36R,39S)-22-Methyl-N-[(1-methylcyclopropyl)sulfonyl]-24,38,40-trioxo-4,23-dioxa-1,6,13,25,37-pentaazaheptacyclo[24.13.1.1^3,39.0^5,14.0^7,12.0^20,22.0^34,36]hentetraconta-5,7,9,11,13,32-hexaene-36-carboxamide] | 10.70 | 9.30 | 9.43 | 9.00 | 8.30 | 4 | 0.07 |

Reference: US8828930B2, “Hepatitis C virus NS3 protease inhibitors” (Merck Sharp & Dohme Corp., priority 2009, dated 2014)
